Where “and” joins values, the source holds several entries; their conditions need not be identical. Identical values can stand only once. Like-named read-outs stand apart in the source and are kept apart here.
Legend:
HeLa cells [1] = assay: Cell antiproliferative activity assay (CCK8); type: cell-based, human; details: for inhibition at 0.25 µM: 250 nM; for inhibition at 0.5 µM: 500 nM; for inhibition at 1 µM: 1000 nM; for inhibition at 2 µM: 2000 nM; for inhibition at 4 µM: 4000 nM; for inhibition at 8 µM: 8000 nM; for inhibition at 16 µM: 16000 nM
Method in brief: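 HeLa cell antiproliferative activity was measured with a CCK8 assay. Cells were plated at 2,000 cells per well in 96-well plates and incubated overnight, then exposed to inhibitor dilutions (0.1 nM to 100 μM, 0.1% DMSO) for 48 h. CCK8 was added for 2 h, absorbance was read at 450 nm (reference 630 nm), and IC50 values were calculated in GraphPad Prism 6.0.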

HeLa cells [2] = assay: Flow cytometry detection for cell apoptosis (Annexin V/PI); type: cell-based, human; details: for Q1 (flow cytometry quadrant, Figure 4A) / Q4 (flow cytometry quadrant, Figure 4A) / Q2: FITC-A+ , PE-A+ Freq. of Parent / Q3: FITC-A+ , PE-A- Freq. of Parent: Annexin V/PI; for Q2: FITC-A+ , PE-A+ Freq. of Parent / Q3: FITC-A+ , PE-A- Freq. of Parent / Q2+Q3 (column without head, sum on percent scale): single samples
Procedure: Cell-apoptosis analysis was carried out by flow cytometry using the Annexin V/PI apoptosis kit (Solarbio, China) according to the manufacturer’s manual. Briefly, HeLa (5 × 10^4/well) cells were seeded in 12-well plates for 24 h and then treated with 0.1% DMSO (as control) or various concentrations of compounds 4d, 4k, and 4l for 72 h, respectively. Cells were harvested, washed with PBS, and then incubated with 100 μl of 1 × Annexin V binding buffer containing 1 μl FITC Annexin V for 10 min at RT in the dark. Cells were incubated for another 5 min at room temperature (RT) in the dark after 1 μl PI was added. PBS (200 µl) was added to each tube for flow cytometry analysis (BriCyte E6). The percentages of apoptotic cells were analyzed using FlowJo soft.

HeLa cells [3] = assay: Flow cytometry detection for cell cycle; type: cell-based, human; details: 6 μM, 48 h
Procedure: HeLa (5 × 10^4/well) cells were seeded in 12-well plates for 24 h and then treated with 0.1% DMSO (as control), compounds 4d, 4k, and 4l of various concentrations for 48 h, respectively. The treated cells were harvested, washed with PBS, and then stained using the cell-cycle staining kit [Multisciences (Lianke) Biotech] according to the manufacturer’s manual. The distribution of cell-cycle phases with different DNA contents was determined by flow cytometry (BriCyte E6) and analyzed using ModFit LT software.

HeLa cells [4] = assay: Colony formation assay; type: cell-based, human
Procedure: HeLa cells were seeded in six-well plates at the density of 500/well for 24 h, and then treated with 0.1% DMSO (as control), various concentrations of compounds 4d, 4k, and 4l, respectively. The cells were incubated for 2 weeks in a 5% CO2 environment at 37°C for colony formation. The media was gently removed from each of the plates, and then each plate was washed with PBS twice. The colonies were fixed with 4% polyformaldehyde for 10 min and then wash the cells with ddH2O twice. Stain with 1 ml Crystal Violet Staining Solution (Beyotime, China) for 10 min. Wash excess crystal violet with ddH2O and allow dishes to dry. Take pictures of the plate and count the colonies.

[5] = HeLa cells, CCK8, 48 h, mean ± SD, n = 3, read-out: IC50 (μM) HeLa
[6] = Homo sapiens, HeLa, 48 h, HeLa cells, CCK8, 48 h, mean ± SD, n = 3, read-out: IC50 (μM) HeLa
[7] = Homo sapiens, HeLa, HELA 2000cells/well, supplement DataSheet2, Repeat1, read-out: IC50 Repeat1
[8] = Homo sapiens, HeLa, HELA 2000cells/well, supplement DataSheet2, Repeat 2, read-out: IC50 Repeat 2
[9] = Homo sapiens, HeLa, HELA 2000cells/well, supplement DataSheet2, mean of two repeats ± SD, read-out: IC50 mean±SD
[10] = Homo sapiens, HELA 2000cells/well, Repeat1, read-out: Inhibition (%) Repeat1
[11] = Homo sapiens, HELA 2000cells/well, Repeat2, read-out: Inhibition (%) Repeat2

Structure (SMILES): COCCOc1cc2ncnc(Nc3cccc(-c4cn(-c5ccccc5OC)nn4)c3)c2cc1OCCOC [Compound 4k, [6,7-Bis-(2-methoxy-ethoxy)-quinazolin-4-yl]-{3-[1-(2-methoxy-phenyl)-1H-[1,2,3]triazol-4-yl]-phenyl}-amine]
- IC50 (HeLa cells [1]; [5]): 4.16 ± 0.48 µM
- IC50 (HeLa cells [1]; [6]): 3.79 µM
- IC50 (HeLa cells [1]; [7]): 3.72 µM
- IC50 (HeLa cells [1]; [8]): 4.68 µM
- IC50 (HeLa cells [1]; [9]): 4.16 ± 0.481 µM
- inhibition at 0.25 µM (HeLa cells [1]; [10]): 3.39%
- inhibition at 0.25 µM (HeLa cells [1]; [11]): 0%
- inhibition at 0.5 µM (HeLa cells [1]; [10]): 4.2%
- inhibition at 0.5 µM (HeLa cells [1]; [11]): 6.96%
- inhibition at 1 µM (HeLa cells [1]; [10]): 8.3%
- inhibition at 1 µM (HeLa cells [1]; [11]): 7.05%
- inhibition at 2 µM (HeLa cells [1]; [10]): 22.3%
- inhibition at 2 µM (HeLa cells [1]; [11]): 10.7%
- inhibition at 4 µM (HeLa cells [1]; [10]): 48.8%
- inhibition at 4 µM (HeLa cells [1]; [11]): 43.1%
- inhibition at 8 µM (HeLa cells [1]; [10]): 90.1%
- inhibition at 8 µM (HeLa cells [1]; [11]): 73.9%
- inhibition at 16 µM (HeLa cells [1]; [10]): 96.8%
- inhibition at 16 µM (HeLa cells [1]; [11]): 97%
- Q1 (flow cytometry quadrant, Figure 4A) (HeLa cells [2]; 3 μM, 72 h): 2.64%
- Q4 (flow cytometry quadrant, Figure 4A) (HeLa cells [2]; 3 μM, 72 h): 93.0%
- Q2: FITC-A+ , PE-A+ Freq. of Parent (HeLa cells [2]; 3 μM, 72 h): 3.63%
- Q3: FITC-A+ , PE-A- Freq. of Parent (HeLa cells [2]; 3 μM, 72 h): 0.75%
- Q1 (flow cytometry quadrant, Figure 4A) (HeLa cells [2]; 6 μM, 72 h): 8.66%
- Q4 (flow cytometry quadrant, Figure 4A) (HeLa cells [2]; 6 μM, 72 h): 64.2%
- Q2: FITC-A+ , PE-A+ Freq. of Parent (HeLa cells [2]; 6 μM, 72 h): 21.9%
- Q3: FITC-A+ , PE-A- Freq. of Parent (HeLa cells [2]; 6 μM, 72 h): 5.30%
- Q1 (flow cytometry quadrant, Figure 4A) (HeLa cells [2]; 12 μM, 72 h): 24.0%
- Q4 (flow cytometry quadrant, Figure 4A) (HeLa cells [2]; 12 μM, 72 h): 11.6%
- Q2: FITC-A+ , PE-A+ Freq. of Parent (HeLa cells [2]; 12 μM, 72 h): 61.9%
- Q3: FITC-A+ , PE-A- Freq. of Parent (HeLa cells [2]; 12 μM, 72 h): 2.53%
- cell cycle phase at which HeLa cells were arrested (HeLa cells [3]): both G0/G1 and G2/M
- melting point: 87 to 90 °C

Structure (SMILES): COCCOc1cc2ncnc(Nc3cccc(-c4cn(-c5ccc(C)cc5)nn4)c3)c2cc1OCCOC [Compound 4l, [6,7-Bis-(2-methoxy-ethoxy)-quinazolin-4-yl]-[3-(1-p-tolyl-1H-[1,2,3]triazol-4-yl)-phenyl]-amine]
- IC50 (HeLa cells [1]; [5]): 4.51 ± 0.08 µM
- IC50 (HeLa cells [1]; [6]): 4.36 µM
- IC50 (HeLa cells [1]; [7]): 4.41 µM
- IC50 (HeLa cells [1]; [8]): 4.58 µM
- IC50 (HeLa cells [1]; [9]): 4.51 ± 0.083 µM
- inhibition at 0.25 µM (HeLa cells [1]; [10]): 2.96%
- inhibition at 0.25 µM (HeLa cells [1]; [11]): 0%
- inhibition at 0.5 µM (HeLa cells [1]; [10]): 5.57%
- inhibition at 0.5 µM (HeLa cells [1]; [11]): 0.522%
- inhibition at 1 µM (HeLa cells [1]; [10]): 8.62%
- inhibition at 1 µM (HeLa cells [1]; [11]): 4.7%
- inhibition at 2 µM (HeLa cells [1]; [10]): 12.6%
- inhibition at 2 µM (HeLa cells [1]; [11]): 6.88%
- inhibition at 4 µM (HeLa cells [1]; [10]): 37.2%
- inhibition at 4 µM (HeLa cells [1]; [11]): 32%
- inhibition at 8 µM (HeLa cells [1]; [10]): 96.7%
- inhibition at 8 µM (HeLa cells [1]; [11]): 96.9%
- inhibition at 16 µM (HeLa cells [1]; [10]): 99%
- inhibition at 16 µM (HeLa cells [1]; [11]): 98.9%
- Q1 (flow cytometry quadrant, Figure 4A) (HeLa cells [2]; 3 μM, 72 h): 3.78%
- Q4 (flow cytometry quadrant, Figure 4A) (HeLa cells [2]; 3 μM, 72 h): 84.8%
- Q2: FITC-A+ , PE-A+ Freq. of Parent (HeLa cells [2]; 3 μM, 72 h): 9.69%
- Q3: FITC-A+ , PE-A- Freq. of Parent (HeLa cells [2]; 3 μM, 72 h): 1.71%
- Q2: FITC-A+ , PE-A+ Freq. of Parent (HeLa cells [2]; 3 μM, 72 h, listed as e12): 9.69% and 6.86% and 8.36%
- Q3: FITC-A+ , PE-A- Freq. of Parent (HeLa cells [2]; 3 μM, 72 h, listed as e12): 1.71% and 1.25% and 0.95%
- Q2+Q3 (column without head, sum on percent scale) (HeLa cells [2]; 3 μM, listed as e12): 11.4 and 8.11 and 9.31
- Q1 (flow cytometry quadrant, Figure 4A) (HeLa cells [2]; 6 μM, 72 h): 3.76%
- Q4 (flow cytometry quadrant, Figure 4A) (HeLa cells [2]; 6 μM, 72 h): 83.5%
- Q2: FITC-A+ , PE-A+ Freq. of Parent (HeLa cells [2]; 6 μM, 72 h): 11.1%
- Q3: FITC-A+ , PE-A- Freq. of Parent (HeLa cells [2]; 6 μM, 72 h): 1.72%
- Q2: FITC-A+ , PE-A+ Freq. of Parent (HeLa cells [2]; 6 μM, 72 h, listed as e12): 8.62% and 11.1% and 7.43%
- Q3: FITC-A+ , PE-A- Freq. of Parent (HeLa cells [2]; 6 μM, 72 h, listed as e12): 1.73% and 1.72% and 1.32%
- Q2+Q3 (column without head, sum on percent scale) (HeLa cells [2]; 6 μM, listed as e12): 10.35 and 12.82 and 8.75
- Q1 (flow cytometry quadrant, Figure 4A) (HeLa cells [2]; 12 μM, 72 h): 4.50%
- Q4 (flow cytometry quadrant, Figure 4A) (HeLa cells [2]; 12 μM, 72 h): 78.5%
- Q2: FITC-A+ , PE-A+ Freq. of Parent (HeLa cells [2]; 12 μM, 72 h): 14.1%
- Q3: FITC-A+ , PE-A- Freq. of Parent (HeLa cells [2]; 12 μM, 72 h): 2.91%
- Q2: FITC-A+ , PE-A+ Freq. of Parent (HeLa cells [2]; 12 μM, 72 h, listed as e12): 14.8% and 14.1% and 12.5%
- Q3: FITC-A+ , PE-A- Freq. of Parent (HeLa cells [2]; 12 μM, 72 h, listed as e12): 2.43% and 2.91% and 2.33%
- cell apoptosis in HeLa cells, percentage (HeLa cells [2]; 12 μM, 72 h, three independent experiments): 16.36%
- Q2+Q3 (column without head, sum on percent scale) (HeLa cells [2]; 12 μM, listed as e12): 17.23 and 17.01 and 14.83
- Number of Colonies /well (HeLa cells [4]; 6 uM, repeats 1-3): 291 and 246 and 217
- effect on cell colony formation (HeLa cells [4]; 12 μM, 2 weeks): entirely inhibited
- melting point: 95 to 98 °C
